From patent EP0811615A1, “1-Aryl-5-(substituted alkyl (thio) amido) pyrazoles and their use as pesticides” (RHONE-POULENC AGROCHIMIE, priority 1996, dated 1997)

Tests used:
housefly = experiment: House fly bait test; format: in vivo; conditions: Musca domestica; bait application at 100 ppm; adult flies, after 24 hours; read-out: pest mortality HF
From the text: For housefly tests, the formulation was initially prepared in a similar manner to the above, but in 16.3 g of water with corresponding adjustment of other components, providing a 200 ppm concentration. Final dilution with an equal volume of a 20% by weight aqueous solution of sucrose provided a 100 ppm concentration of the test compound. When necessary, sonication was provided to insure complete dispersion.
House fly: Four to six day old adult house flies were reared according to the specifications of the Chemical Specialties Manufacturing Association (Blue Book, McNair-Dorland Co., N.Y. 1954; pages 243-244, 261) under controlled conditions. The flies were immobilized by anesthetizing with carbon dioxide and twenty five immobilized individuals, males and females, were transferred to a cage consisting of a standard food strainer and a wrapping-paper-covered surface. Ten ml of the 100 ppm test compound formulation were added to a soufflé cup containing an absorbent cotton pad. As an untreated control, 10 ml of a water-acetone-DMF-emulsifier-sucrose solution, containing no test compound, were applied in a similar manner. A treated control with a commercial technical compound, malathion, formulated in the same manner, was tested as a standard. The bait cup was introduced inside the food strainer prior to admitting the anesthetized flies.

[1] = test system: buckthorn or cotton aphid; experiment: Buckthorn or cotton aphid foliar spray test; format: in vivo, Aphis nasturtii / Aphis gossypii; conditions: Aphis gossypii; foliar application at 100 ppm; counted after one day (buckthorn aphid) or three days (cotton aphid); read-out: pest mortality BA*/CA
Method: (§1) For mite, aphid, southern armyworm, Mexican bean beetle, and tobacco budworm tests, a solution or suspension was prepared by adding 10 mg of the test compound to a solution of 160 mg of dimethylformamide, 838 mg of acetone, 2 mg of a 3:1 ratio of Triton X-172 : Triton X-152 (respectively, mainly anionic and nonionic low foam emulsifiers which are each anhydrous blends of alkylaryl polyether alcohols with organic sulfonates), and […] of water. The result was a concentration of 100 ppm of the test compound.
Buckthorn or cotton aphid: Adult and nymphal stages of buckthorn or cotton aphid were reared on potted dwarf nasturtium or cotton plants, respectively. The potted plants (one pot per compound tested) infested with 100-150 aphids, were placed on a revolving turntable and sprayed with 100 ml of the 100 ppm test compound formulation by use of a DeVilbiss spray gun set at 40 psig air pressure. As an untreated control, 100 ml of a water-acetone-DMF-emulsifier solution, containing no test compound, were also sprayed on infested plants. A treated control with a commercial technical compound, malathion or cyhalothrin, formulated in the same manner, was tested as a standard. After spraying, the pots were stored for one day on buckthorn aphid or three days for cotton aphid, after which the dead aphids were counted.

tobacco budworm = experiment: Tobacco budworm foliar spray test on cotton plants; format: in vivo; conditions: Heliothis virescens, 120 h; foliar application at 100 ppm; second instar larvae, held five days; read-out: pest mortality TBW
Method: as §1
Tobacco budworm: Potted cotton plants were placed on a revolving turntable and sprayed with 100 ml of the 100 ppm test compound formulation by use of a DeVilbiss spray gun set at 40 psig air pressure. As an untreated control, 100 ml of a water-acetone-DMF-emulsifier solution, containing no test compound, were also sprayed on plants. A treated control with a commercial technical compound, either cypermethrin or sulprofos, formulated in the same manner, was tested as a standard. When dry, the leaves were placed in plastic dishes containing a piece of filter paper and a moistened dental wick. One randomly selected second instar tobacco budworm larva was then introduced into each cup which was closed and held for five days. Larvae unable to move the length of their body, even upon stimulation by prodding, were considered dead.

southern armyworm = experiment: Southern armyworm foliar spray test on bean plants; format: in vivo; conditions: Spodoptera eridania, 120 h; foliar application at 100 ppm; second instar larvae, held five days; read-out: pest mortality SAW
Method: as §1
(§2) Southern armyworm: Potted bean plants, were placed on a revolving turntable and sprayed with 100 ml of the 100 ppm test compound formulation by use of a DeVilbiss spray gun set at 40 psig air pressure. As an untreated control, 100 ml of a water-acetone-DMF-emulsifier solution, containing no test compound, were also sprayed on plants. A treated control with a commercial technical compound, either cypermethrin or sulprofos, formulated in the same manner, was tested as a standard. When dry, the leaves were placed in plastic cups lined with moistened filter paper. Five randomly selected second instar southern armyworm larvae were introduced into each cup which was closed and held for five days. Larvae which were unable to move the length of the body, even upon stimulation by prodding, were considered dead.

[2] = test system: southern root-knot nematode; experiment: Southern root-knot nematode soil test on tomato; format: in vivo; parameters: dose or concentration left out as unconfirmed; conditions: Meloidogyne incognita; Soil Conc. at 21 Kg/ha; second stage juveniles; read-out: pest mortality Nema (J2)
Method: For southern root-knot nematode and systemic tests for southern armyworm, cotton aphid, tobacco budworm and greenbug, a stock solution or suspension was prepared by adding 15 mg of the test compound to 250 mg of dimethylformamide, 1250 mg of acetone and 3 mg of the emulsifier blend referenced above. Water was then added to provide a test compound concentration of 150 ppm. When necessary, sonication was provided to insure complete dispersion.
Southern root-knot nematode: Infected roots of tomato plants, containing egg masses of southern root-knot nematode, were removed from a stock culture and cleaned of soil by shaking and washing with tap water. The nematode eggs were separated from the root tissue and rinsed with water. Samples of the egg suspension were placed on a fine screen over a receiving bowl, in which the water level was adjusted to be in contact with the screen. From the bowl, juveniles were collected on a fine screen. The bottom of a cone-shaped container was plugged with coarse vermiculite and then filled to within 1.5 cm of the top with about a 200 ml volume of pasteurized soil. Then into a hole made in the center of the soil in the cone was pipetted an aliquot of the 150 ppm test compound formulation. A treated control with a commercial technical compound, fenamifos, formulated in a similar manner, was tested as a standard. As an untreated control, an aliquot of a water-acetone-DMF-emulsifier solution, containing no test compound, was applied in a similar manner. Immediately after treatment of the soil with the test compound there were added to the top of each cone 1000 second stage juvenile southern root-knot nematodes. After 3 days, a single healthy tomato seedling was then transplanted into the cone. The cone, containing the infested soil and tomato seedling, was kept in the greenhouse for 3 weeks. At the termination of the test, […], […]

Mexican bean beetle = Mexican bean beetle foliar spray test on bean plants; format: in vivo; conditions: Epilachna varivestis, 120 h; foliar application at 100 ppm; second instar larvae, held five days; read-out: pest mortality MBB
Method: as §1
as §2, with “Mexican bean beetle:” for “Southern armyworm:”, “plants” for “plants,”, “formulation, sufficient to wet the plants to runoff,” for “formulation”, “Mexican bean beetle” for “southern armyworm”

twospotted spider mite = experiment: Twospotted spider mite test; format: in vivo; conditions: Tetranychus urticae, 144 h; 100 ppm in foliar bait tests; read-out: control of mites
Method: Twospotted spider mite: Leaves infested with adult and nymphal stages of the two-spotted spider mite, obtained from a stock culture were placed on the primary leaves of two bean plants growing in a 6 cm. peat pot. A sufficient number of mites (150-200) for testing were transferred to the fresh plants within a period of twenty-four hours. The potted plants (one pot per compound) were placed on a revolving turntable and sprayed, sufficient to wet the plants to runoff, with 100 ml of the 100 ppm test compound formulation by use of a DeVilbiss spray gun set at 40 psig. air pressure. As an untreated control, 100 ml of the water-acetone-DMF-emulsifler solution, containing no test compound, were also sprayed on infested plants. A treated control with a commercial technical compound, either dicofol or hexythiazox, formulated in the same manner, was tested as a standard. The sprayed plants were held for six days, after which a mortality count of motile forms was made.

Compound | mortality at 100 ppm (housefly) | mortality at 100 ppm [1] | mortality at 100 ppm (tobacco budworm) | mortality at 100 ppm (southern armyworm) | mortality [2] | mortality at 100 ppm (Mexican bean beetle) | mortality at 100 ppm (twospotted spider mite)
COC(C(=O)Nc1c(SC(F)(F)F)c(C#N)nn1-c1c(Cl)cc(C(F)(F)F)cc1Cl)c1ccccc1 (stereo not drawn) [Compound 22] | 70 to 100% | 70 to 100% | 70 to 100% | 70 to 100% |  |  | 
COC(C)C(=O)Nc1c([S+]([O-])C(F)(Cl)Cl)c(C#N)nn1-c1c(Cl)cc(C(F)(F)F)cc1Cl (stereo not drawn) [Compound 28] | 70 to 100% |  | 70 to 100% | 70 to 100% | 70 to 100% | 70 to 100% | 
CCCCCCCOCC(=O)Nc1c(SC(F)(F)F)c(C#N)nn1-c1c(Cl)cc(C(F)(F)F)cc1Cl [Compound 34] | 70 to 100% |  |  | 70 to 100% | 70 to 100% |  | 
COCCOCC(=O)Nc1c(S(=O)(=O)C(F)(F)F)c(C#N)nn1-c1c(Cl)cc(C(F)(F)F)cc1Cl [Compound 13] |  | 70 to 100% |  | 70 to 100% | 70 to 100% |  | 
N#Cc1nn(-c2c(Cl)cc(C(F)(F)F)cc2Cl)c(NC(=O)CO)c1SC(F)(F)F [Compound 32] | 70 to 100% |  |  | 70 to 100% | 70 to 100% |  | 
COCC(=O)Nc1c([S+]([O-])C(F)(Cl)Cl)c(C#N)nn1-c1c(Cl)cc(C(F)(F)F)cc1Cl (stereo not drawn) [Compound 17] | 70 to 100% |  | 70 to 100% | 70 to 100% | 70 to 100% |  | 
CCOC(C)C(=O)Nc1c(SC(F)(F)F)c(C#N)nn1-c1c(Cl)cc(C(F)(F)F)cc1Cl (stereo not drawn) [Compound 39] | 70 to 100% |  |  | 70 to 100% | 70 to 100% | 70 to 100% | 
COCC(=O)Nc1c(SC(F)(Cl)Cl)c(C#N)nn1-c1c(Cl)cc(OC(F)(F)F)cc1Cl [Compound 46] | 70 to 100% |  | 70 to 100% | 70 to 100% |  |  | 30 to 70%
CCOCC(=O)Nc1c([S+]([O-])C(F)(F)F)c(C#N)nn1-c1c(Cl)cc(C(F)(F)F)cc1Cl (stereo not drawn) [Compound 8] | 70 to 100% |  | 70 to 100% | 70 to 100% | 70 to 100% | 70 to 100% | 
CCOCC(=O)Nc1c(SC(F)(F)F)c(C#N)nn1-c1c(Cl)cc(C(F)(F)F)cc1Cl [Compound 2] | 70 to 100% | 70 to 100% | 70 to 100% | 70 to 100% |  | 70 to 100% | 
COC(C)C(=O)Nc1c(SC(F)(Cl)Cl)c(C#N)nn1-c1c(Cl)cc(OC(F)(F)F)cc1Cl (stereo not drawn) [Compound 47] | 70 to 100% |  | 70 to 100% | 70 to 100% |  |  | 30 to 70%
COCC(=O)Nc1c([S+]([O-])C(F)(F)F)c(C#N)nn1-c1c(Cl)cc(C(F)(F)F)cc1Cl (stereo not drawn) [Compound 7] | 70 to 100% |  | 70 to 100% | 70 to 100% | 70 to 100% | 70 to 100% | 
COCCOCC(=O)Nc1c([S+]([O-])C(F)(F)F)c(C#N)nn1-c1c(Cl)cc(C(F)(F)F)cc1Cl (stereo not drawn) [Compound 9] | 70 to 100% |  | 70 to 100% | 70 to 100% | 70 to 100% | 70 to 100% | 
COCC(=O)Nc1c(S(=O)(=O)C(F)(F)F)c(C#N)nn1-c1ncc(C(F)(F)F)cc1Cl [Compound 50] | 70 to 100% | 70 to 100% |  | 70 to 100% | 70 to 100% |  | 
COCC(=O)Nc1c(S(=O)(=O)C(F)(F)F)c(C#N)nn1-c1c(Cl)cc(C(F)(F)F)cc1Cl [Compound 11] | 70 to 100% |  |  | 70 to 100% | 70 to 100% | 70 to 100% | 
CCOCC(=O)Nc1c([S+]([O-])C(F)(Cl)Cl)c(C#N)nn1-c1c(Cl)cc(C(F)(F)F)cc1Cl (stereo not drawn) [Compound 18] |  |  | 70 to 100% | 70 to 100% | 70 to 100% | 70 to 100% | 
CCOCC(=O)Nc1c(S(=O)(=O)C(F)(F)F)c(C#N)nn1-c1c(Cl)cc(C(F)(F)F)cc1Cl [Compound 12] | 70 to 100% |  | 70 to 100% | 70 to 100% | 70 to 100% |  | 
CCCCOC(C)C(=O)Nc1c(SC(F)(F)F)c(C#N)nn1-c1c(Cl)cc(C(F)(F)F)cc1Cl (stereo not drawn) [Compound 42] | 70 to 100% |  |  | 70 to 100% | 70 to 100% |  | 
COC(C)C(=O)Nc1c(S(=O)(=O)C(F)(F)F)c(C#N)nn1-c1c(Cl)cc(C(F)(F)F)cc1Cl (stereo not drawn) [Compound 25] | 70 to 100% | 70 to 100% |  | 70 to 100% | 70 to 100% | 70 to 100% | 
